{
  "source": "patent US20250367191A1",
  "about": "“TREATMENT OF MITOCHONDRIAL DISEASES WITH A CNS-PENETRANT SGC STIMULATOR ZAGOCIGUAT” (Tisento Therapeutics Inc., priority 2022, published 2025)",
  "key": {"[1]": {"tested_on": "participants diagnosed with MELAS", "test": "MELAS study: fMRI-BOLD during resting state and visual stimulus", "format": "in vivo, human", "protocol": "Two exploratory functional neuroimaging modalities, arterial spin labeling (ASL) and functional magnetic resonance imaging (fMRI), were used to measure the potential PD effects of Compound I in the brain. While ASL quantifies regional CBF during the resting state, fMRI is a relative measure based on the blood-oxygen-level-dependent (BOLD) effect and was conducted during both a resting state and during a visual stimulus to measure brain activity.\nEach individual MRI scanning session took approximately 45 minutes (maximum of ˜1 hour)."}, "[2]": {"tested_on": "participants diagnosed with MELAS", "test": "MELAS study: patient-reported outcomes (PGIC, MFIS, PROMIS)", "format": "in vivo, human", "excerpt": "The Patient-reported Outcomes Measurement Information System (PROMIS) Item Bank v2.0—Cognitive Function is a self-administered questionnaire that assesses multiple aspects of mental fatigue and cognitive function in the past 7 days prior to the administration of the questionnaire. It uses a Likert-type rating scale (eg, “Never” to “Very often”).\nThe Patient Global Impression of Change (PGIC) is a single-item questionnaire that assesses the participant's perception of change in his/her overall health status since the start of the study using a Likert-type rating scale (eg, “Very much improved” to “Very much worse”).\nThe Modified Fatigue Impact Scale (MFIS) is a self-administered questionnaire that assesses the impact of fatigue in terms of physical, cognitive, and psychosocial functioning over the past 4 weeks. Patients respond using a Likert-type rating scale. (eg, “Never” to “Almost always”)."}, "healthy participants": {"tested_on": "healthy participants", "test": "Phase I trial NCT03856827, healthy participants aged 18 to 62: EEG", "format": "in vivo, human", "protocol": "Electroencephalography (EEG) is a technique that measures electrical activity in the brain (brain electrophysiology) by using electrodes places on the scalp. EEG-power spectral signals may be analyzed at different frequencies or frequency bands. They were analyzed at the following frequency bands in two prior phase 1 clinical trials with Compound I described below: Delta-1-4 Hz (typically associated with sleep), Theta-4-7.5 Hz (associated with waking/falling asleep, some association with cognition), Alpha-8-12 Hz (associated with passive wakefulness, and with cognitive processing), Beta-12-25 Hz (associated with alertness and concentration) and Gamma-25-45 Hz (associated with higher cognitive function). qEEG stands for quantitative electroencephalography. […]\nDuring EEG-ERP experiments, several key waveforms may be evaluated following a stimulus: N200 (associated with stimulus identification and distinction), P300 (associated with selective attention, information processing and cognitive speed/capacity), P200 (associated with aspects of selective attention or stimulus encoding), P50 (assciated with sensory gating, or the reduced neurophysiological response to redundant stimuli), and N100 (associated with early perceptal processes). […]"}, "[3]": {"test": "Two Phase 1 studies in healthy adults aged 18 to 79: safety, PK, PD", "format": "in vivo, human", "excerpt": "The 15-mg Compound I QD dose was selected based on safety, tolerability, PK, and PD data from repeated dosing at this level in two Phase 1 studies conducted in healthy adults aged 18 to 79 years. […] Across the Phase 1 studies, no safety concerns were identified. […] No impact on cognitive performance measures was observed."}, "[4]": {"test": "Clinical trial in patients with stable schizophrenia: PK and safety", "format": "in vivo, human", "conditions": "total oral daily dosages up to 60 mg per day"}, "mice": {"tested_on": "mice", "conditions": "mice pretreated, compared with vehicle-treated mice; cited from earlier work"}, "rodent": {"tested_on": "rodent", "conditions": "single dose; cited from earlier work"}, "rats [5]": {"tested_on": "rats", "conditions": "cited from earlier work"}, "rats [6]": {"tested_on": "rats", "conditions": "cited from earlier work", "remark": "listed apart in the source"}, "healthy elderly subjects": {"tested_on": "healthy elderly subjects", "conditions": "cited from earlier work"}, "[7]": {"conditions": "healthy elderly, 15 mg QD, after 14 days"}, "[8]": {"conditions": "healthy participants, 15 mg QD for up to 15 days"}, "[9]": {"conditions": "two weeks, 15 mg QD, compared with placebo"}},
  "data": [
    {"compound": "Fc1ccccc1Cc1nc(-c2nc(C(F)(F)F)n[nH]2)cn2ccnc12", "note": "[Compound I, zagociguat]", "values": [
      {"measurement": "task-based functional MRI (visual activation, flashing checkerboard)", "setting": "[1]; Day 29 compared to screening and Day 1", "result": "increased activation of voxels in the occipital region"},
      {"measurement": "task-free functional MRI during resting state, connectivity", "setting": "[1]; Day 29 compared to screening and day 1", "result": "enhanced connecitivity"},
      {"measurement": "participants reporting improvement in their disease (PGIC)", "setting": "[2]; 8 participants", "result": "Three of the 8"},
      {"measurement": "participants reporting no change in their disease (PGIC)", "setting": "[2]; 8 participants", "result": 4},
      {"measurement": "participants reporting their disease as much worse (PGIC)", "setting": "[2]; 8 participants", "result": 1},
      {"measurement": "changes in MFIS and PROMIS at the study level", "setting": "[2]; Day 29", "result": "not observed"},
      {"measurement": "ERP P300 amplitude", "setting": "healthy participants; QD dosing, healthy participants aged 18 to 62", "result": "increase in amplitude with increasing dose level"},
      {"measurement": "alpha power", "setting": "healthy participants; day 14, all dosage levels tested, compared to placebo", "result": "Improvements in alpha power"},
      {"measurement": "PK data, dose dependence", "setting": "[3]; Phase 1 studies", "result": "linear and dose-dependent"},
      {"measurement": "PK data, effect of food", "setting": "[3]; Phase 1 studies", "result": "not impacted by food"},
      {"measurement": "cognitive performance measures", "setting": "[3]; [7]", "result": "No impact"},
      {"measurement": "neurophysiological parameters by EEG", "setting": "[3]; [7]", "result": "modest impacts"},
      {"measurement": "SAEs", "setting": "[3]; [8]", "result": "no SAEs reported"},
      {"measurement": "discontinuations due to AEs", "setting": "[3]; [8]", "result": "no discontinuations due to AEs"},
      {"measurement": "severity of AEs", "setting": "[3]; [8]", "result": "mild or moderate"},
      {"measurement": "PK, dose proportionality", "setting": "[4]", "result": "proportional PK"},
      {"measurement": "safety and tolerability", "setting": "[4]", "result": "safe and well tolerated"},
      {"measurement": "rotenone-induced astrogliosis", "setting": "mice", "result": "lower rotenone-induced astrogliosis"},
      {"measurement": "fMRI-BOLD signals", "setting": "rodent", "result": "increased fMRI-BOLD signals"},
      {"measurement": "levels of cGMP in the CNS", "setting": "rodent", "result": "increased levels of cGMP in the CNS"},
      {"measurement": "qEEG gamma-band oscillatory power", "setting": "rodent", "result": "elevated qEEG gamma-band oscillatory power"},
      {"measurement": "brain metabolite NAA+NAAG deficits", "setting": "rats [5]; chronic dosing", "result": "reversed"},
      {"measurement": "dendritic spine density", "setting": "rats [5]; chronic dosing", "result": "improved dendritic spine density"},
      {"measurement": "hippocampal long term potentiation (LTP)", "setting": "rats [5]; chronic dosing", "result": "restored"},
      {"measurement": "behavioral task performance", "setting": "rats [5]; pharmacologically impaired rats", "result": "improved behavioral task performance"},
      {"measurement": "neurotrophic factors pCREB and BDNF", "setting": "rats [5]; rat, in vivo", "result": "increased neurotrophic factors"},
      {"measurement": "gamma power in combination with donepezil", "setting": "rats [6]; 10 mg/kg orally + 1 mg/kg donepezil, 1-2 hours post-dose", "result": "further increased"},
      {"measurement": "qEEG gamma oscillations / gamma power compared to vehicle dosing", "setting": "rats [6]; oral suspension", "result": "increasing gamma oscillations"},
      {"measurement": "gamma power", "setting": "rats [6]; orally at 10 mg/kg", "result": "increased gamma power"},
      {"measurement": "N200 auditory event-related potential (ERP) latencies", "setting": "healthy elderly subjects; healthy elderly, 15 mg QD", "result": "shortening"},
      {"measurement": "gamma power (EEG)", "setting": "healthy elderly subjects; healthy elderly, 15 mg QD", "result": "trend increases in gamma power"},
      {"measurement": "posterior alpha power (EEG)", "setting": "healthy elderly subjects; healthy elderly, 15 mg QD", "result": "increases in posterior alpha power"},
      {"measurement": "neuroimaging by ASL and fMRI BOLD, MRS measurements, NeuroCart CNS function assessments", "setting": "healthy elderly subjects; healthy elderly", "result": "No changes were observed"},
      {"measurement": "CSF concentration of Alpha 2 macroglobulin (A2M)", "setting": "healthy elderly subjects; [9]", "result": "potentially important reductions"},
      {"measurement": "CSF concentration of complement C3 (C3)", "setting": "healthy elderly subjects; [9]", "result": "potentially important reductions"}
    ]}
  ]
}
